Several values for one entry are separate records, joined by “and”; a condition that tells them apart may be missing. Equal entries are not always repeated. Where two headings read alike, the source gives them in different places.
How the values were obtained:
GPR139 [1] = target: T1, GPR139 (Homo sapiens, UniProt Q6DWJ6); assay: GTPγS binding assay, single-concentration screen, COS7 membranes co-expressing GPR139 and GO2Q; assay type: biochemical; set-up: expressed in transfected cells; host or cells: COS7 (membranes); conditions: for Activation levels of GPR139 (GTPγS binding), GPR139-GO2Q: 1 mM final concentration, COS7 membranes co-expressing GPR139 and GO2Q, single wells of triplicate; for Activation of GPR139 in the GTPγS binding assay: 1 mM
T1 sequence (Q6DWJ6 1-353): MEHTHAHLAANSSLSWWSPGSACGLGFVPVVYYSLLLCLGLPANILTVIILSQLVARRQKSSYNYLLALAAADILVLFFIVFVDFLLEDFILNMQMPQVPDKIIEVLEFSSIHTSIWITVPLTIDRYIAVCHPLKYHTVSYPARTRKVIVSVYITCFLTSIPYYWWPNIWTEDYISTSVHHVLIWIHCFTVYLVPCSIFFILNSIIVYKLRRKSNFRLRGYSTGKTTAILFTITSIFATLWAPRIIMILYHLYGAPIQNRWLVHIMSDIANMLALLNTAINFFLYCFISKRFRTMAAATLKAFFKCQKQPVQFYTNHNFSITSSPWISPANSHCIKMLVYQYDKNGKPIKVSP
Procedure: (§1) In order identify the ligands for GPR139 two improvements in the detection assay were made to allow for the ligands to be detected. First, we chose to use a GTPγS binding assay instead of using live cultured cells. The GTPγS binding assay is a cell free system that uses the cell membrane of the cell(s) of interest rather than the live cell(s). One advantage of this assay is that potential ligands present in the cell culture media are washed away when the cell membrane is prepared. This reduces the basal level of signal and increase the chance of detecting receptor ligands when assessing compounds that activate the receptor. Second, a GO2Q chimeric G-protein was created to be co-expressed with GPR139 in order to increase the signal-to-noise ratio in the GTPγS binding assay. Historically, the Gi, Go coupled GPCRs offer much greater signal-to-noise ratio in GTPγS binding studies. For Gs and Gq coupled GPCRs, although ligand-stimulated specific signals can be detected in a GTPγS binding assay, the signal-to-noise ratios are often very small. To address this a chimeric GO2-Gq chimeric G-protein, GO2Q, with the N-terminus from Go2 protein and the C-terminus from Gq protein.
(§2) To test for compounds that activate GPR139, different amino acids and their derivatives (Table 2) were tested as ligands in the GTPγS binding assay using cell membranes from COS7 cells co-expressing GPR139 and GO2Q. Cell membrane from COS7 cells expressing GO2Q alone or co-expressing other GPCRs were also tested in GTPγS binding assay in parallel as controls. Each compound was tested in triplicate.

GO2Q alone = assay: GTPγS binding assay, control COS7 membranes expressing GO2Q alone (Ct-GO2Q); assay type: biochemical
Procedure: as §1, §2

GPR139 [2] = target: T1, GPR139; assay: Calcium mobilization assay (FLIPR), GPR139 expressed in HEK293 cells; assay type: cell-based; set-up: expressed in transfected cells; host or cells: HEK293 (transient); conditions: similar to GTPγS binding studies
Procedure: FIG. 3A and FIG. 3B: Provides the results of experiments conducted to determine whether Trp and its derivatives (FIG. 3A) and Phe and its derivatives (FIG. 3B) stimulate Ca^2+ mobilization in HEK293 cells expressing GPR139.
The active compounds were also tested in a calcium mobilization assay (FLIPR® assay). For these experiments human GPR139 was transiently expressed in HEK293 cells and calcium mobilization was stimulated using L-Trp, L-Phe or their derivatives. […] The concentrations of L-Trp and L-Phe in many cell culture media (for instance DMEM is about 80 μM and 750 μM respectively) are close to the EC50 values of L-Trp and L-Phe for GPR139. […] This may explain why GPR139 appeared constitutively active when recombinantly expressed in mammalian cells.
About 300 additional phenylalanine analogues have been tested for GPR139 activation using a calcium mobilization (FLIPR®) assay. The results of these experiments indicate that many of these analogues can also activate GPR139. Table 4 lists certain phenylalanine analogues that have been determined to activate GPR139 by calcium mobilization at a concentration of 300 μM (calcium mobilization is expressed as percentage of that observed for L-phenylalanine).

GPR139 [3] = target: T1, GPR139; assay: GTPγS binding dose response study, human GPR139 co-transfected with GO2Q into COS7 cells; assay type: biochemical; set-up: expressed in transfected cells; host or cells: COS7 (membranes); conditions: human GPR139, FIG. 2A and 2B
Text: (§3) FIG. 2-FIG. 2F: Tryptophan, phenylalanine, and their derivatives activate GPR139. Human (FIG. 2A and FIG. 2B) or mouse (FIG. 2C and FIG. 2D) GPR139 were co-transfected with chimeric G-protein GO2Q into COS7 cells. Cell membranes from transfected cells were used in GTPγS binding studies using various ligands at different concentrations to stimulate GPR139. FIG. 2E and FIG. 2F show control experiments in the dose response studies of Example 1.

mouse GPR139 = target: T2, mouse GPR139 (Mus musculus, UniProt Q80UC8); assay: GTPγS binding dose response study, mouse GPR139 co-transfected with GO2Q into COS7 cells; assay type: biochemical; conditions: mouse GPR139, FIG. 2C and 2D
T2 construct: expressed in transfected cells; host or cells: COS7 (membranes)
T2 sequence (Q80UC8 1-345): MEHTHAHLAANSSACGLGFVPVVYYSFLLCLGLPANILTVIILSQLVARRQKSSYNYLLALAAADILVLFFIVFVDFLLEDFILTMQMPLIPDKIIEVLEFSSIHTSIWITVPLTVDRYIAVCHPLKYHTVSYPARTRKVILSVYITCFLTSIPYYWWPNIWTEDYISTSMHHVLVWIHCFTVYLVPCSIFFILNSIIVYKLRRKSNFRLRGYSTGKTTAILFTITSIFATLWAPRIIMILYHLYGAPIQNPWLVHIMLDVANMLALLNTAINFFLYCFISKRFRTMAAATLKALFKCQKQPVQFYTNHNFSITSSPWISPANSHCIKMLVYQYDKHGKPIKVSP
Text: as §3

[4] = 1 mM final concentration, COS7 membranes expressing GO2Q alone, single wells of triplicate

Structure (SMILES) | Activation levels of GPR139 (GTPγS binding), GPR139-GO2Q (GPR139 [1]) | Activation levels (GTPγS binding), Ct-GO2Q (GO2Q alone; [4]) | further results
CSCC[C@H](N)C(=O)O [Met] | 2657 and 2829 and 2802 | 2173 and 2307 and 2276 | 
Cn1cc(C[C@H](N)C(=O)O)c2ccccc21 [1-methy-L-Trp, 1-methyl-L-Trp] |  |  | Potency in calcium mobilization relative to L-Trp and L-Phe (GPR139 [2]): higher potencies; Dose-responsive activation of GPR139 (GTPγS binding) (GPR139 [3]): specifically activate GPR139 in a dose-responsive manner; Dose-responsive activation of GPR139 (GTPγS binding) (mouse GPR139): specifically activate GPR139 in a dose-responsive manner
NCCc1c[nH]c2ccccc12 [Tryptamine] | 6757 and 7686 and 7742 | 2025 and 2048 and 2088 | Activation of GPR139 in the GTPγS binding assay (GPR139 [1]): activated GPR139; Dose-responsive activation of GPR139 (GTPγS binding) (GPR139 [3]): specifically activate GPR139 in a dose-responsive manner; Dose-responsive activation of GPR139 (GTPγS binding) (mouse GPR139): specifically activate GPR139 in a dose-responsive manner
C[C@@H](O)[C@H](N)C(=O)O [Thr] | 2547 and 2507 and 2558 | 2210 and 2213 and 2008 | 
NC(=O)CC[C@H](N)C(=O)O [Gln] | 2583 and 2525 and 2766 | 2181 and 2327 and 2336 | 
NCCc1c[nH]cn1 [HA, histamine] | 2737 and 2863 and 2899 | 2186 and 2204 and 2199 | 
N[C@@H](Cc1ccc(O)cc1)C(=O)O [Tyr] | 2752 and 2715 and 2921 | 2192 and 2191 and 2186 | 
NCC(=O)O [Gly] | 2560 and 2505 and 2414 | 1936 and 2133 and 2289 | 
Cn1cc(C[C@@H](N)C(=O)O)c2ccccc21 [1-methy-D-Try, 1-methyl-D-Trp] |  |  | Potency in calcium mobilization relative to L-Trp and L-Phe (GPR139 [2]): higher potencies; Dose-responsive activation of GPR139 (GTPγS binding) (GPR139 [3]): specifically activate GPR139 in a dose-responsive manner; Dose-responsive activation of GPR139 (GTPγS binding) (mouse GPR139): specifically activate GPR139 in a dose-responsive manner
N=C(N)NCCC[C@H](N)C(=O)O [Arg] | 2806 and 2783 and 2528 |  | Activation levels (GTPγS binding), Ct-GO2Q (GO2Q alone): 2171 and 2131 and 2255
NCCCC[C@H](N)C(=O)O [Lys] | 2433 and 2617 and 2589 | 2400 and 2138 and 2041 | 
N[C@H](Cc1c[nH]c2ccccc12)C(=O)O [D-Trp, D-tryptophan] |  |  | Dose-responsive activation of GPR139 (GTPγS binding) (GPR139 [3]): specifically activate GPR139 in a dose-responsive manner; Dose-responsive activation of GPR139 (GTPγS binding) (mouse GPR139): specifically activate GPR139 in a dose-responsive manner
NCCc1c[nH]c2ccc(O)cc12 [Seretonin] | 2839 and 2852 and 2920 | 2356 and 2154 and 2332 | 
CC(C)[C@H](N)C(=O)O [Val] | 2632 and 2689 and 2533 | 2072 and 2083 and 1977 | 
N[C@@H](Cc1c[nH]cn1)C(=O)O [His] | 2640 and 2499 | 2308 and 2259 and 2197 | 
N[C@H](Cc1ccccc1)C(=O)O [D-Phe, D-phenylalanine] |  |  | Dose-responsive activation of GPR139 (GTPγS binding) (GPR139 [3]): specifically activate GPR139 in a dose-responsive manner; Dose-responsive activation of GPR139 (GTPγS binding) (mouse GPR139): specifically activate GPR139 in a dose-responsive manner
O=C(O)[C@@H]1C[C@@H](O)CN1 [HO-Pro] | 2825 and 2797 and 3109 | 2166 and 2152 and 2189 | 
NCC(O)c1ccc(O)cc1 (centres unmarked) [Octopamine] | 2554 and 2675 and 2831 | 2087 and 2140 and 2142 | 
NC(=O)C[C@H](N)C(=O)O [Asn] | 2806 and 2483 and 2547 | 2195 and 2142 and 2133 | 
N[C@@H](CSSC[C@H](N)C(=O)O)C(=O)O [Cystine] | 2501 and 2652 and 2258 | 2242 and 2149 and 2229 | 
NCCc1ccc(O)c(O)c1 [DA] | 2688 and 2825 and 2708 | 2250 and 2213 and 2319 | 
CNCC(O)c1ccc(O)c(O)c1 (centres unmarked) [Adrenaline] | 2721 and 2624 and 2670 | 2240 and 2117 and 2045 | 
N[C@@H](CCC(=O)O)C(=O)O [Glu] | 2847 and 2837 and 2841 | 2242 and 2310 and 2311 | 
N[C@@H](CO)C(=O)O [Ser] | 2605 and 2458 and 2545 | 1975 and 2036 and 2164 | 
CC(N)Cc1ccccc1 (centres unmarked) [Amphetamine] | 7242 and 6744 and 7263 | 2331 and 2132 and 2001 | Activation of GPR139 in the GTPγS binding assay (GPR139 [1]): activated GPR139; Dose-responsive activation of GPR139 (GTPγS binding) (GPR139 [3]): specifically activate GPR139 in a dose-responsive manner; Dose-responsive activation of GPR139 (GTPγS binding) (mouse GPR139): specifically activate GPR139 in a dose-responsive manner
NCCc1ccccc1 [b-phenylethylamine, β-phenylethylamine] | 6705 and 7099 and 6634 | 2334 and 2065 and 2024 | Activation of GPR139 in the GTPγS binding assay (GPR139 [1]): activated GPR139; Dose-responsive activation of GPR139 (GTPγS binding) (GPR139 [3]): specifically activate GPR139 in a dose-responsive manner; Dose-responsive activation of GPR139 (GTPγS binding) (mouse GPR139): specifically activate GPR139 in a dose-responsive manner
CC[C@H](C)[C@H](N)C(=O)O [Ile] | 2760 and 2542 and 2903 | 2266 and 2222 and 2253 | 
